Experimental data reported in patent US10144715B2, “Piperazine derivatives as liver X receptor modulators” (priority 2014, dated 2018).
pEC50, pIC50, pKi: −log10 of the molar value. Read-outs that look alike come from different tables or passages of the source.

Key:
[1] = biological target: T1, Gal4 DNA binding domain fused to the LBD of LXRβ in HEK293 cells (Homo sapiens (Human), UniProt P55055); experiment: cell-based
LXR β LBD protein [2] = biological target: T2, LXR β LBD protein (Homo sapiens (Human), UniProt P55055); experiment: biochemical; type: binding; conditions: read-out: LXRβ Binding Ki
Target sequence in this assay (P55055 222-460 limits assumed): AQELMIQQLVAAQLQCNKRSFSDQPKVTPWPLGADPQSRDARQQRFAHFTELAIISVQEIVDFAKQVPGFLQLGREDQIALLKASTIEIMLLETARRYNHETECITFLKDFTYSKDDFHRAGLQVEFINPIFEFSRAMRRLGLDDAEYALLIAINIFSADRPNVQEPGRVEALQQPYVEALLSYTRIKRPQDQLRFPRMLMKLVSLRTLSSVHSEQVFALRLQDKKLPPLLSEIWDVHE

[3] = biological target: T1, Gal4 DNA binding domain fused to the LBD of LXRβ in HEK293 cells; experiment: cell-based; type: cell-based
[4] = biological target: T3, Gal4 DNA binding domain fused to the LBD of LXRα in HEK293 cells (Homo sapiens (Human), UniProt Q13133); experiment: LXR luciferase transcriptional reporter gene assay, antagonist mode (200 nM T0901317), LXRα; type: cell-based; conditions: for pIC50: read-out: Cell LXRα IC50
T3 sequence (Q13133 209-447): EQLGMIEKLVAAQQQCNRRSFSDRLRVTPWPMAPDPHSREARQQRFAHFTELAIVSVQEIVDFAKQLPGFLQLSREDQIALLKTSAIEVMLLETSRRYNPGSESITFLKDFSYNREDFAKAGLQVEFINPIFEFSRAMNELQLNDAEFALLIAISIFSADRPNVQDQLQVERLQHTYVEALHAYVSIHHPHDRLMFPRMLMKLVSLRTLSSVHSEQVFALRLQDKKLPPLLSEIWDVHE

[5] = biological target: T3, Gal4 DNA binding domain fused to the LBD of LXRα in HEK293 cells; experiment: LXR luciferase transcriptional reporter gene assay, agonist mode, LXRα; type: cell-based; conditions: for pEC50: read-out: Cell LXRα EC50
LXR α LBD protein [6] = biological target: T4, LXR α LBD protein (Homo sapiens (Human), UniProt Q13133); experiment: LXR α radioligand binding assay (SPA, competition with [3H]TO901317); conditions: read-out: LXRα Binding Ki
T4 sequence (Q13133 209-447): as above

LXR α LBD protein [7] = biological target: T4, LXR α LBD protein; experiment: Human LXRα coactivator recruitment FRET assay, agonist mode; type: biochemical; conditions: agonist mode
In short: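 Time-resolved FRET (delay 100 µs, window 200 µs) after 2 h rt incubation of compound with 10 nM (2×) GST-tagged LXRα or LXRβ LBD plus 200 nM fluorescein-SRC2-3 and 20 nM Tb-anti-GST (4×). Percent control vs concentration fit to four-parameter model; EC50 at inflection.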

LXR β LBD protein [8] = biological target: T2, LXR β LBD protein; experiment: biochemical; type: biochemical
Target sequence in this assay (P55055 222-460): as the sequence (P55055 222-460 limits assumed) above

[9] = antagonist mode, 200 nM T0901317, HEK293 reporter gene assay

T1 sequence (P55055 222-460 limits assumed): as above

SMILES	pEC50 [1]	Cell LXRβ efficacy ([1]; agonist mode)	pKi (LXR β LBD protein [2])	pIC50 [3]	Cell LXRα efficacy [4]	pIC50 [4]	Cell LXRα efficacy [5]	pEC50 [5]	pKi (LXR α LBD protein [6])	pEC50 (LXR α LBD protein [7])	FRET LXRα efficacy (LXR α LBD protein [7]) [%]	pIC50 [4, 9]	pEC50 ([5]; agonist mode)	Cell LXRβ efficacy [1]	Cell LXRβ efficacy [3]	FRET LXRβ efficacy (LXR β LBD protein [8])	pEC50 (LXR β LBD protein [8]; read-out: FRET LXRβ EC50)	Cell LXRβ efficacy [3, 9]
CC(O)c1cnc(N2CCN(c3ccc(F)c(S(C)(=O)=O)c3)C[C@H]2C(C)C)nc1C(F)(F)F (mixture of isomers) [Cpd No 12-1, 1-(2-((R)-4-(4-fluoro-3-(methylsulfonyl)phenyl)-2-isopropylpiperazin-1-yl)-4-(trifluoromethyl)pyrimidin-5-yl)ethan-1-ol]	6.81	154 (37) %	7.64	6.60	8047 (105) %	5.09	969 (46) %	6.01	6.64									
CS(=O)(=O)c1cccc(N2CCN(C[C@H]3CC[C@H](C(F)F)CC3)[C@@H](c3ccccc3)C2)c1 (single isomer, unassigned) [48-19]					1630 (67) %	5.79	712 (25) %	6.15	6.50	5.73	13							
CS(=O)(=O)c1cccc(N2CCN(C[C@H]3CC[C@@H](C(F)F)CC3)[C@@H](c3ccccc3)C2)c1 (single isomer, unassigned) [Cpd No 48-17]							127 (39) %		7.22	6.54	36	5.87	6.90					
CC(C)(O)[C@@H]1CN(c2cccc(S(C)(=O)=O)c2)CCN1c1nccc(C(F)(F)F)n1 [7-24, (S)-2-(4-(3-(methylsulfonyl)phenyl)-1-(4-(trifluoromethyl)pyrimidin-2-yl)piperazin-2-yl)propan-2-ol]	6.56		7.37	8.05			1586 (50) %	5.80	5.99	6.34	83			275 (37) %	9 (64) %	14 (74) %	7.85	
CC(C)[C@@H]1CN(c2ccc(F)c(S(C)(=O)=O)c2)CCN1c1ncc(CN(C)C)c(C(F)(F)F)n1 [15-3, (R)-1-(2-(4-(4-fluoro-3-(methylsulfonyl)phenyl)-2-isopropylpiperazin-1-yl)-4-(trifluoromethyl)pyrimidin-5-yl)-N,N-dimethylmethanamine]	7.13	74 (17) %	7.33	6.05			1144 (25) %						5.94					900 (93) %
CC(C)[C@@H]1CN(c2ccc(F)c(S(C)(=O)=O)c2)CCN1c1ncc(CN2CC(O)C2)c(C(F)(F)F)n1 [15-4, (R)-1-((2-(4-(4-fluoro-3-(methylsulfonyl)phenyl)-2-isopropylpiperazin-1-yl)-4-(trifluoromethyl)pyrimidin-5-yl)methyl)azetidin-3-ol]	6.74	182 (13) %	7.00	5.84			2838 (20) %						5.55					1438 (104) %
CC(C)[C@@H]1CN(c2ccc(F)c(S(C)(=O)=O)c2)CCN1c1ncc(CNS(C)(=O)=O)c(C(F)(F)F)n1 [15-7, (R)-N-((2-(4-(4-fluoro-3-(methylsulfonyl)phenyl)-2-isopropylpiperazin-1-yl)-4-(trifluoromethyl)pyrimidin-5-yl)methyl)methanesulfonamide]	6.70	198 (18) %	7.40	5.75			2315 (23) %	5.64	6.29									1773 (113) %
CC(C)[C@@H]1CN(c2ccc(F)c(S(C)(=O)=O)c2)CCN1c1ncc(C(=O)N2CCOCC2)c(C(F)(F)F)n1 [17-8, (R)-(2-(4-(4-fluoro-3-(methylsulfonyl)phenyl)-2-isopropylpiperazin-1-yl)-4-(trifluoromethyl)pyrimidin-5-yl)(morpholino)methanone]	< 4.70		6.51	6.27								5.64	< 4.70					538 (91) %
COCCN(C)C(=O)c1cnc(N2CCN(c3ccc(F)c(S(C)(=O)=O)c3)C[C@H]2C(C)C)nc1C(F)(F)F [17-12, (R)-2-(4-(4-fluoro-3-(methylsulfonyl)phenyl)-2-isopropylpiperazin-1-yl)-N-(2-methoxyethyl)-N-methyl-4-(trifluoromethyl)pyrimidine-5-carboxamide]	< 4.70		6.68	6.53		5.94		< 4.70										
CCOC(=O)CCN(C)C(=O)c1cnc(N2CCN(c3ccc(F)c(S(C)(=O)=O)c3)C[C@H]2C(C)C)nc1C(F)(F)F [17-18, ethyl (R)-3-(2-(4-(4-fluoro-3-(methylsulfonyl)phenyl)-2-isopropylpiperazin-1-yl)-N-methyl-4-(trifluoromethyl)pyrimidine-5-carboxamido)propanoate]	< 4.70		6.89	6.73	1159 (92) %							5.94	< 4.70		186 (98) %			
CC(C)[C@@H]1CN(c2ccc(F)c(S(C)(=O)=O)c2)CCN1c1nccc(OCC(F)(F)F)n1 [44-3, (R)-2-(4-(4-fluoro-3-(methylsulfonyl)phenyl)-2-isopropylpiperazin-1-yl)-4-(2,2,2-trifluoroethoxy)pyrimidine]	< 4.70		7.17	7.04											91 (93) %			
CC(C)[C@@H]1CN(c2ccc(F)c(S(C)(=O)=O)c2)CCN1c1ncc(CN2CCOCC2)c(C(F)(F)F)n1 [Cpd No 15-5, (R)-4-((2-(4-(4-fluoro-3-(methylsulfonyl)phenyl)-2-isopropylpiperazin-1-yl)-4-(trifluoromethyl)pyrimidin-5-yl)methyl)morpholine]	7.44	36 (3) %	7.44	6.66			2592 (12) %					5.93	5.59					221 (105) %
CC(C)[C@@H]1CN(c2ccc(F)c(S(C)(=O)=O)c2)CCN1c1ncc(C(=O)N(C)C)c(C(F)(F)F)n1 [Cpd No 17-1, (R)-2-(4-(4-fluoro-3-(methylsulfonyl)phenyl)-2-isopropylpiperazin-1-yl)-N,N-dimethyl-4-(trifluoromethyl)pyrimidine-5-carboxamide]	6.61		6.91	6.18										244 (8) %	667 (84) %			
CC(C)[C@@H]1CN(c2ccc(CO)c(S(C)(=O)=O)c2)CCN1c1ncc(C(N)=O)c(C(F)(F)F)n1 [Cpd No 17-25, (R)-2-(4-(4-(hydroxymethyl)-3-(methylsulfonyl)phenyl)-2-isopropylpiperazin-1-yl)-4-(trifluoromethyl)pyrimidine-5-carboxamide]	7.34	46 (13) %		6.44	3652 (98) %		1127 (18) %					5.44	5.95					359 (99) %
CC(C)[C@@H]1CN(c2cc(F)c(CO)c(S(C)(=O)=O)c2)CCN1c1ncc(C(N)=O)c(C(F)(F)F)n1 [Cpd No 17-28, (R)-2-(4-(3-fluoro-4-(hydroxymethyl)-5-(methylsulfonyl)phenyl)-2-isopropylpiperazin-1-yl)-4-(trifluoromethyl)pyrimidine-5-carboxamide]	7.70	20 (9) %		6.74			913 (9) %					5.59	6.04					182 (98) %
CS(=O)(=O)c1cccc(N2CCN(CC3CCC(O)(C(F)(F)F)CC3)[C@@H](c3ccccc3)C2)c1 (stereo partly drawn) [Cpd No 48-1, (S)-4-((4-(3-(methylsulfonyl)phenyl)-2-phenylpiperazin-1-yl)methyl)-1-(trifluoromethyl)cyclohexan-1-ol]					3946 (105) %	5.40	760 (31) %	6.12		5.82	19							
CC1(C)CCC(CN2CCN(c3cccc(S(C)(=O)=O)c3)C[C@@H]2c2ccccc2)CC1 [Cpd No 48-4, (S)-1-((4,4-dimethylcyclohexyl)methyl)-4-(3-(methylsulfonyl)phenyl)-2-phenylpiperazine]					6447 (79) %	5.19	279 (61) %	6.55	7.41	6.52	39							
